Source: ChEMBL document CHEMBL1150269, “Structural origin of selectivity in class II-selective histone deacetylase inhibitors” (J Med Chem, 2008)

What was measured:
[1] = molecular target: T1, Protein deacetylase HDAC6 (Homo sapiens, UniProt Q9UBN7); assay: Inhibition of HDAC6
T1 sequence (Q9UBN7 whole entry): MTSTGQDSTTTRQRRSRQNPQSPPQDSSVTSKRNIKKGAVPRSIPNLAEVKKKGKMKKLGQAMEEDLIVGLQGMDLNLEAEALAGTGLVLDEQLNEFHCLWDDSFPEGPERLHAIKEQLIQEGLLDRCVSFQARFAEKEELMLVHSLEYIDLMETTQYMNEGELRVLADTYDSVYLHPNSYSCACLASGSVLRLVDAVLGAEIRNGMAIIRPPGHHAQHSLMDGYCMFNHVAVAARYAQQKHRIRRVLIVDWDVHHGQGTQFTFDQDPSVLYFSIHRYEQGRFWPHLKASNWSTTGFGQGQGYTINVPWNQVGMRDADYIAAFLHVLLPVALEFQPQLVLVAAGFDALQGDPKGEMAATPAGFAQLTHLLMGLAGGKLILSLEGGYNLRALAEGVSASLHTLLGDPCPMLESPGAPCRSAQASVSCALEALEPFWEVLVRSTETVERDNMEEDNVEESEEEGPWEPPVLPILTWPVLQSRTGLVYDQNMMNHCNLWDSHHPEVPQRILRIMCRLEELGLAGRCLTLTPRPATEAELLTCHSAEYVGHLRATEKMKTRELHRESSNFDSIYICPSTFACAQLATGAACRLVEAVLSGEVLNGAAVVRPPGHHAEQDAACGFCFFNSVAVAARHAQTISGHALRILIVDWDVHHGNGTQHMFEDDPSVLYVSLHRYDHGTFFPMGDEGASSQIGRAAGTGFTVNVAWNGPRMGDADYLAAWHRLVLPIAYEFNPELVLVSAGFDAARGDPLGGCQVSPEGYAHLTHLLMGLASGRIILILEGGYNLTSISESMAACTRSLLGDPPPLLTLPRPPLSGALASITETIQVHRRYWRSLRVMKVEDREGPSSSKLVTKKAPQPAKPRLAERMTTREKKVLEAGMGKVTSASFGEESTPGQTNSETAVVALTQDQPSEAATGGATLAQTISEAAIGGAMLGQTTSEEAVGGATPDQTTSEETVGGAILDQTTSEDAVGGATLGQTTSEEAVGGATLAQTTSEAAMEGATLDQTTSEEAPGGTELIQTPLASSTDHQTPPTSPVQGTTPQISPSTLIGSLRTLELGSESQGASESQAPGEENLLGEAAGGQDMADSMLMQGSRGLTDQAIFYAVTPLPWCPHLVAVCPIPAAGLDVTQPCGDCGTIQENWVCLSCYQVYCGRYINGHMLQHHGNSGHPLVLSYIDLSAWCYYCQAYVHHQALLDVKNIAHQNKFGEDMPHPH

Histone deacetylase 1 = Histone deacetylase 1 (Homo sapiens, UniProt Q13547); assay: Inhibition of HDAC1
Histone deacetylase 9 = Histone deacetylase 9 (Homo sapiens, UniProt Q9UKV0); assay: Inhibition of HDAC9
Sequence of Histone deacetylase 9 (Q9UKV0 whole entry): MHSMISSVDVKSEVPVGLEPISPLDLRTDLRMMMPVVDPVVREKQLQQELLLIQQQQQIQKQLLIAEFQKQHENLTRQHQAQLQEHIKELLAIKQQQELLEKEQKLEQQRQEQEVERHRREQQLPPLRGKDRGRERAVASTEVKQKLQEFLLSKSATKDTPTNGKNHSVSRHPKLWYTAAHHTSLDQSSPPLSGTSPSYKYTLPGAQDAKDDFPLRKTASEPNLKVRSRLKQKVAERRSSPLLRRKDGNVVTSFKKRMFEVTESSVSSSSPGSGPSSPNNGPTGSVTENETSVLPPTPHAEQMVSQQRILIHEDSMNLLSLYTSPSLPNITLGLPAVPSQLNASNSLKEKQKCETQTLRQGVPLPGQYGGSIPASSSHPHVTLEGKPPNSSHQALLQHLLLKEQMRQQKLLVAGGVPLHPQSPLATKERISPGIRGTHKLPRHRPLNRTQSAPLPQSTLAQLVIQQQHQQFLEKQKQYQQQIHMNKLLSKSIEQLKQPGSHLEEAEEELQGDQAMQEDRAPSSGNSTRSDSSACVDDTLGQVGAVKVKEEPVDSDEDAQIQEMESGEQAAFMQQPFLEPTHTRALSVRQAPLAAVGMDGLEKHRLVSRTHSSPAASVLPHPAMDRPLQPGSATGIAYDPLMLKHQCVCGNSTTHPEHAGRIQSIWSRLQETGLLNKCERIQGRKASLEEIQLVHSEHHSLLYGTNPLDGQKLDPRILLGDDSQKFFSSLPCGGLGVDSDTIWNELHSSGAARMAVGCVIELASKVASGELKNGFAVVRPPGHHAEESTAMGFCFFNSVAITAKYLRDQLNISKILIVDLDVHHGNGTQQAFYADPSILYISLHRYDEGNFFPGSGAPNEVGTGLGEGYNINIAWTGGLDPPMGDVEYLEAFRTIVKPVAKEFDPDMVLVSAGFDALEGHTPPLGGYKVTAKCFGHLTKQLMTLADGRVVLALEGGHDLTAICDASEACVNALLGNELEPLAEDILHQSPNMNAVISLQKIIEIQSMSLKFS

Sequence of Histone deacetylase 1 (Q13547 whole entry): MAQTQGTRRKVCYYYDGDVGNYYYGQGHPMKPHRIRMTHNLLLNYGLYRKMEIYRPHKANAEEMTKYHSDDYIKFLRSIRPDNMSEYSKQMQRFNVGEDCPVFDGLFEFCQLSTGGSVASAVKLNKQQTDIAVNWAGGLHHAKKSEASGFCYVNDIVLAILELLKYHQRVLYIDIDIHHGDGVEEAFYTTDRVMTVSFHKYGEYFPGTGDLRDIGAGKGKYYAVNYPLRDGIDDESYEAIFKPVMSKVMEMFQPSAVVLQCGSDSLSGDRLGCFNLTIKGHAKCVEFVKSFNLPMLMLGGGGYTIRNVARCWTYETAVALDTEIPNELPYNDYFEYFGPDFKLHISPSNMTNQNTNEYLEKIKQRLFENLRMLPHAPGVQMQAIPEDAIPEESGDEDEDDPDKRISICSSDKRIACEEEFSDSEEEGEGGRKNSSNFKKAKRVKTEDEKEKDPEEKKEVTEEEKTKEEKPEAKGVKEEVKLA

- Ki [1]: 28 nM
- Ki (Histone deacetylase 1): 88 nM
- Ki (Histone deacetylase 9): 6100 nM
SMILES: O=C(CCCCCCC(=O)Nc1ccc([C@H]2O[C@@H](CSc3ccncc3)C[C@@H](c3ccccc3)O2)cc1)NO
